This is an account of results in ChEMBL document CHEMBL3785006, “Discovery of 2-Indole-acylsulfonamide Myeloid Cell Leukemia 1 (Mcl-1) Inhibitors Using Fragment-Based Methods” (J Med Chem, 2016).

Structures are written as SMILES.

Experiment [1] addresses T1, Induced myeloid leukemia cell differentiation protein Mcl-1 (Homo sapiens, UniProt Q07820).
The target of another experiment is Bcl-2-like protein 1 (Homo sapiens, UniProt Q07817).
The target in experiment [2] is T1, Induced myeloid leukemia cell differentiation protein Mcl-1. The source holds these as a separate data set.
Experiment [3] has the same target. This is another data set of the same source.
For experiment [4] the target is unchanged. The source holds these as a separate data set.

T1 sequence (Q07820 whole entry): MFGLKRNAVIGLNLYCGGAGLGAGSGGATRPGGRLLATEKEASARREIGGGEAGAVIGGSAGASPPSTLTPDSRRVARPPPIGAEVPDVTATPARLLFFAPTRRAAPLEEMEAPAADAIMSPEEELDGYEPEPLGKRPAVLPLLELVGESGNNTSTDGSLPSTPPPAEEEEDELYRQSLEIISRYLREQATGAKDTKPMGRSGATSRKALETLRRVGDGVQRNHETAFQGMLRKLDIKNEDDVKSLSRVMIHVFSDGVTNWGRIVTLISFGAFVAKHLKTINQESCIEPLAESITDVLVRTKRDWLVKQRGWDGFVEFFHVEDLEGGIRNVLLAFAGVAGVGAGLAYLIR
Chain of Bcl-2-like protein 1 (Q07817 whole entry): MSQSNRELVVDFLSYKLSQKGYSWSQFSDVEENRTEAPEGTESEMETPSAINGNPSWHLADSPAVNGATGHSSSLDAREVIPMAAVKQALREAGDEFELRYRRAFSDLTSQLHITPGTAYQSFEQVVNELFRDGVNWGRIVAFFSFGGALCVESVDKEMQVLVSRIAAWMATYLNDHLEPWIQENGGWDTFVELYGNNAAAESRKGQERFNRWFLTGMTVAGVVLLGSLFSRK

As for `Cc1cc(OCCCc2c(C(=O)NS(=O)(=O)c3ccnc(N(C)CCc4ccccc4)c3)[nH]c3c(-c4c(C)nn(C)c4C)c(Cl)ccc23)cc(C)c1Cl`, the Ki in experiment [1] was 226 nM; at Bcl-2-like protein 1, 943 nM; in experiment [2], less than 10 nM; in experiment [3], 2.5 nM.

`Cc1cc(OCCCc2c(C(=O)NS(=O)(=O)c3ccnc(NC4Cc5ccccc5C4)c3)[nH]c3c(-c4c(C)nn(C)c4C)c(Cl)ccc23)cc(C)c1Cl`: the inhibition constant Ki in experiment [1] was 61 nM; at Bcl-2-like protein 1, 997 nM; in experiment [2] it was less than 10 nM; in experiment [3] it was 1 nM.

`Cc1cc(OCCCc2c(C(=O)NS(=O)(=O)c3ccnc(NCCC(C)C)c3)[nH]c3c(-c4c(C)nn(C)c4C)c(Cl)ccc23)cc(C)c1Cl`: the Ki was 179 nM in experiment [1], 4470 nM on Bcl-2-like protein 1, less than 10 nM in experiment [2] and 5.6 nM in experiment [3].

`Oc1ccccc1-c1cc(C(F)(F)C(F)(F)F)[nH]n1` came in with an equilibrium dissociation constant (Kd) in experiment [4] of 1.5 mM.

For the molecule `Cc1cc(OCCCc2c(C(=O)NS(=O)(=O)c3ccc(C(=O)NCc4ccncc4)o3)[nH]c3c(-c4c(C)nn(C)c4C)c(Cl)ccc23)cc(C)c1Cl`, the Ki was 20 nM in experiment [1], greater than 50000 nM on Bcl-2-like protein 1, less than 10 nM in experiment [2] and 8.5 nM in experiment [3].

Regarding `Cc1cc(OCCCc2c(C(=O)NS(=O)(=O)c3ccnc(NCCc4ccccc4)c3)[nH]c3c(-c4c(C)nn(C)c4C)c(Cl)ccc23)cc(C)c1Cl`, the inhibition constant Ki is 78 nM in experiment [1], 1110 nM at Bcl-2-like protein 1, less than 10 nM in experiment [2] and 1.2 nM in experiment [3].

A word on the Ki: it is the equilibrium dissociation constant of an inhibitor or competing ligand from its target. What is called Kd is a measure of binding affinity in units of concentration.
